Here are results for five molecules from patent publication US4780281A, “Method for assay of peroxidase enzyme or reducing substrate activity” (Wayne State University, priority 1985, dated 1988).

For orientation: Km means the concentration of substrate that gives half-maximal velocity.

The nature of one data set: Stability of PPHP. In kind it is physicochemical. The conditions noted are these: protected from light and metals.
The target of the next data set is T1, glutathione peroxidase (Homo sapiens, UniProt P07203).
T1 sequence (P07203 1-203): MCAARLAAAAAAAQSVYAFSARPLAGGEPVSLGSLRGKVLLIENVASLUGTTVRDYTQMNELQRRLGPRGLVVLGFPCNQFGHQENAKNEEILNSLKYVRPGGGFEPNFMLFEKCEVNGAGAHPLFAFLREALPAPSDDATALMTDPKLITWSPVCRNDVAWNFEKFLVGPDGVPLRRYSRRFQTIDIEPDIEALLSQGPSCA
Put plainly: PPHP as peroxidase substrate. In kind it is biochemical. From the text:
(§1) A practical method is described for the determination of peroxidase enzyme activity that monitors the ability of enzyme preparations to reduce PPHP in the presence of a reducing substrate. […] The alcohol product and hydroperoxide substrate are conveniently separated by HPLC and reliably quantitated by ultraviolet detection. These properties make PPHP an ideal substrate for the assay. […] Thus, the procedure is a general assay for peroxidase activity.

The test system of a further data set is cytochrome P-450. Put plainly: PPHP as peroxidase substrate. Type of data set: biochemical.
Excerpt: as §1

In the next data set the target is T2, catalase (Homo sapiens, UniProt P04040).
T2 sequence (P04040 2-527 limits assumed): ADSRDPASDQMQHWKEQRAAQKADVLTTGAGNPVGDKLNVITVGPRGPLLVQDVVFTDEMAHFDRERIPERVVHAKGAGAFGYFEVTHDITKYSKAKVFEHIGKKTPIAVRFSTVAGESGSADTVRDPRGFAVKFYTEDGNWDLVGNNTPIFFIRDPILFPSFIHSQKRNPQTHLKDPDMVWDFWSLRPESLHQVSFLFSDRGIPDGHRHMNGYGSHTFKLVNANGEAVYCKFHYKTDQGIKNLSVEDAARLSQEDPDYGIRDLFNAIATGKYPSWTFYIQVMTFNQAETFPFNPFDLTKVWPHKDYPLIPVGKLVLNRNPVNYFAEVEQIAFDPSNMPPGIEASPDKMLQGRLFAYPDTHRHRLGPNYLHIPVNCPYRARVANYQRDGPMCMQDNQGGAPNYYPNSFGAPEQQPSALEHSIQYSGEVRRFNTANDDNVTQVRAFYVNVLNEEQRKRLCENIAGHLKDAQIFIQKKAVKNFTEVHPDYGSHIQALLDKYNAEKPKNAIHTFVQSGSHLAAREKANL
The data set is described as follows: PPHP as peroxidase substrate. In kind it is biochemical.
Excerpt: as §1

The target of a further data set is lactoperoxidase (Bos taurus, UniProt P80025). Put plainly: PPHP as peroxidase substrate. In kind it is biochemical.
Excerpt: as §1

Another data set in a line: Solubility of PPHP. In kind it is physicochemical. The conditions noted are these: aqueous buffers.
Data set [1] addresses T3, Horseradish peroxidase (HRP) (Armoracia rusticana, UniProt P00433).
T3 construct: purchased Sigma Chemical Corporation Type VI
T3 sequence (P00433 31-338 limits assumed): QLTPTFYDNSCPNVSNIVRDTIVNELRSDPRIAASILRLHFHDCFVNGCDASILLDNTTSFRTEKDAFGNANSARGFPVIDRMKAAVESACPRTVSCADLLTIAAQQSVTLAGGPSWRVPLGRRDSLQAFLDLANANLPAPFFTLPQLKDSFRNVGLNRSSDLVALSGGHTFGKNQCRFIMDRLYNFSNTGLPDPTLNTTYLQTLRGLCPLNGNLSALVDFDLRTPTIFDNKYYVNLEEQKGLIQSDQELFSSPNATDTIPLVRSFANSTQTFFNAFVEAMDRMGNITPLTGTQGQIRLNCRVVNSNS
Put plainly: Reducing substrate specificity assay (HRP-catalysed reduction of PPHP to PPA, HPLC). In kind it is biochemical. The conditions noted are these: for Index = concentration PPA/(concentration PPA+concentration PPHP): 100 microM PPHP, 0.1 M potassium citrate pH 5.5, 0.2 mM Tween-20, 25° C., 6 minutes, triplicate. How it is done:
Incubations were performed in triplicate with a 25° C. shaker bath in 16×150 mm disposable glass test tubes. 60 nM HRP was incubated at 25° C. in 0.1 M potassium citrate buffer, […] containing 0.2 mM Tween 20, with 100 microM PPHP and 200 microM potential reducing substrate. The index value is defined as, Index=concentration PPA/(concentration PPA+concentration PPHP). Most reducing substrates were prepared daily as 8 mM stocks in either water, methanol, or methanol:water (1:1 v/v). DPBF was dissolved in acetone. Uric acid was dissolved in DMSO. Epinephrine required titration with dilute hydrochloric acid prior to dissolution in methanol. Indoleacetic acid, tryptophan, cysteine, and methionine were titrated with dilute potassium hydroxide prior to dissolution in methanol:water (1:1 v/v).
For the data in Table 1 hereinafter, reducing substrates (50 microliters of 8 mM stocks--see Table 1 for preparation) were transferred into 1.9 ml of 0.1 M potassium citrate buffer, pH 5.5, containing 0.2 mM Tween-20 and allowed to thermally equilibrate for 10 minutes. HRP (24 microl of a 5 microM stock) was added to each trial and preincubated for three minutes prior to the addition of PPHP (25 microl of 8 mM stock in methanol). Incubations were stopped at 6 minutes by pouring mixtures onto Baker SPE System columns (3 ml octyldecylsilyl, from J. T. Baker & Co.). The columns were prepared prior to use by passing 3×3 ml aliquots of water through the columns with the Baker SPE vacuum system. At the stop time, an individual trial was poured onto the column and aspirated to near dryness. Each individual trial was set aside until the reminder of the trials were treated in the same manner. After all incubation trials were partitioned onto the SPE columns, each individual incubation tube was washed with 2 ml of 0.2 mM Tween 20 in distilled water and poured onto the corresponding SPE column. This Tween 20/water wash was aspirated to near dryness with vacuum. Analytes were eluted into 12×76 mm disposable glass test tubes with 2×1 ml aliquots of methanol (HPLC grade, Fisher Scientific Co.). The sample collection rack for the Baker 10 SPE System was modified to accommodate these 12 mm diameter tubes. The SPE columns were aspirated dry at this point and discarded. An internal chromatographic standard of p-nitrobenzyl alcohol (25 microl of 8 mM stock solution in methanol) was added to each methanol eluent, mixed by vortexing, and then clarified by filtration through a 0.45 micron nylon Swinney type filter (Rainin Instrument Corp.). The filtered eluents were used directly for chromatographic analysis.
The Initial incubation conditions were 0.1 M potassium citrate buffer, pH 5.5, with 0.2 mM Tween 20, 200 microM reducing substrate, 60 nM HRP and […] PPHP (structure 1).
Quantitation was determined by adding an internal standard (p-nitrobenzyl alcohol: annotated as I.S. on chromatograms) and ratioing peak areas. Chromatograms are 40 microliters injections onto a 5 micron Zorbax octylsilyl reverse-phase column (DuPont Instrument Corp.) with an isocratic elution mobile of 56% v/v methanol in water at 2 ml per min. U.V. monitoring was with a fixed 254 nm detector (Varian 5000, Varian Instrument Corp.). Vertical numbers are associated with peak retention times in minutes (the integrator used was a Vista 402 System, Varian Instruments).
Analyte concentrations were calculated by an internal standard method of calculation. This required individual incubation chromatograms to be compared to a calibration chromatogram generated by chromatographing a 40 microliter sample aliquot of a solution of PPHP as described under calculations.

A further data set deals with T4, Prostaglandin H Synthase (Ovis aries, UniProt P05979).
T4 sequence (P05979 25-600): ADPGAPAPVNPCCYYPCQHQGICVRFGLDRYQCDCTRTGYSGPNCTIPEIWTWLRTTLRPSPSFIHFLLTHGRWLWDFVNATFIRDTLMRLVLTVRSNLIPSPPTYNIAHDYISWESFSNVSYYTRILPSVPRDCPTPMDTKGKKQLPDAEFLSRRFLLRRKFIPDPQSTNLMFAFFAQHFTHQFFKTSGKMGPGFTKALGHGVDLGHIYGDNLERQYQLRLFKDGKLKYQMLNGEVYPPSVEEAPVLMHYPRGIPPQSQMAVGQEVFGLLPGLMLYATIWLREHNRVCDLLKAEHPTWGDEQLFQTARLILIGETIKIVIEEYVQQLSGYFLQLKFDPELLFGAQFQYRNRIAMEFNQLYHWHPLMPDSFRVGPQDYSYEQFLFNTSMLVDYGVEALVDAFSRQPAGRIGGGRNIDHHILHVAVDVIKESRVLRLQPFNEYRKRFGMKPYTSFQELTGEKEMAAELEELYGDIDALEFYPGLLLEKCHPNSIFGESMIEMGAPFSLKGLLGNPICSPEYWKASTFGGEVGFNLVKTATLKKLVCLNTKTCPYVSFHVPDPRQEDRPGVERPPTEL
The data set is described as follows: Reducing substrate efficiency for PPHP reduction, conditions as for Table 1. In kind it is biochemical.

Another data set addresses T5, HRP (Armoracia rusticana, UniProt P00433).
T5 construct: purchased Sigma Chemical Corporation Type VI
T5 sequence (P00433 31-338 limits assumed): T3 sequence (P00433 31-338 limits assumed)
The data set is described as follows: Steady-state kinetic assay (PPA production, SPE/HPLC). The following applies: HRP with phenol as reducing substrate. Type of data set: biochemical, horseradish.

The test system of another data set is HRP isoenzymes. The conditions noted are these: similar preparation of HRP isoenzymes, phenylperoxyacetic acid; cited from earlier work.
A further data set deals with T6, HRP compound II (Armoracia rusticana, UniProt P00433).
T6 sequence (P00433 31-353): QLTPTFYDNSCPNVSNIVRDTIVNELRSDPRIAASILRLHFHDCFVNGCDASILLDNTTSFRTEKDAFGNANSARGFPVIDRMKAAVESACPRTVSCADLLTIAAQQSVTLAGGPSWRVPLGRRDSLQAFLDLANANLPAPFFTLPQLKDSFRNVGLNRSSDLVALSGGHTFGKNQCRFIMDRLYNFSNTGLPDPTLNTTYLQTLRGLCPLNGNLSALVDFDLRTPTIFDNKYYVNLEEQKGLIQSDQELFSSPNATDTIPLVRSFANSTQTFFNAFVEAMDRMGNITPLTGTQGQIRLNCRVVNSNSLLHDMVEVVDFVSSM
The following applies: pH 8.11; read-out: Km for the reaction with HRP compound II; cited from earlier work.

Substrate in data set [2]: OOCCC/C=C/c1ccccc1
Put plainly: Spectrophotometric assay of Chance & Maehly for guaiacol oxidation. Type of data set: biochemical, horseradish. The following applies: other: estimated.

Substrate in data set [3]: Oc1ccccc1
The data set is described as follows: Steady-state kinetic assay (PPA production, SPE/HPLC). Type of data set: biochemical, horseradish. The following applies: other: 2.5 nM HRP, 100 microM PPHP, pH 5.5, 4 minutes.

The mark [4] stands for this setting: 60 nM HRP, 200 microM reducing substrate.

In the case of `OOCCC/C=C/c1ccccc1` [PPHP, 1-hydroperoxy-5-Phenyl-4-pentene], the stability entry in “Stability of PPHP” is “stable if protected from light and metals”. For the same molecule, the “suitability as peroxidase substrate” value (at glutathione peroxidase; with cytochrome P-450; on catalase; at lactoperoxidase; in [1] (HRP); at Prostaglandin H Synthase (protaglandin H (PGH) synthase)) was “excellent substrate” each time. Besides, the solubility entry in “Solubility of PPHP” is on record as “soluble in aqueous buffers”.

For `Oc1ccccc1` [Phenol, phenol], the “turnover number of PHP reduction” value on HRP was 10500 min. Further, in [1] (setting [4]), the “Index = concentration PPA/(concentration PPA+concentration PPHP)” value is on record as 0.97 ± 0.01. Also, the “reducing substrate quality for HRP (FIG. 1)” value in data set [1] (200 microM reducing substrate, 60 nM HRP, pH 5.5) is given as “good”. Further, the “Index of Efficiency of Reducing Substrates” value on Prostaglandin H Synthase (Prostaglandin H synthase, under the conditions for Table 1) is “.51”.

Consider `Oc1cccc(O)c1O` [Pyrogallol, pyrogallol], for which the “turnover for pyrogallol oxidation” value in the data set on HRP isoenzymes is 18500 min⁻¹. Besides, the “Index = concentration PPA/(concentration PPA+concentration PPHP)” value in [1] (setting [4]) is recorded as 0.97 ± 0.01.

Consider `Cc1ccc(O)cc1` [p-cresol], for which the Michaelis-Menten constant (Km) on HRP compound II is approximately 180 µM.

B1: HRP (Armoracia rusticana) (protein)
chain: T3 sequence (P00433 31-338 limits assumed)
notes: purchased Sigma Chemical Corporation Type VI
With B1, the Michaelis-Menten constant (Km) in data set [2] was 18 µM; in data set [3], 252 µM.
